Publication PMC8234143, “Synthesis and Antiviral Evaluation of Nucleoside Analogues Bearing One Pyrimidine Moiety and Two D-Ribofuranosyl Residues” (Molecules, 2021)
Where two headings read alike, the source gives them in different places.

How the values were obtained:
WI-38 = experiment: Cytotoxicity assay (Cytell Cell Imaging, DAPI/propidium iodide); assay type: cell-based; conditions: cytotoxic activity, normal human lung fibroblasts, read-out: IC50 Normal Cell Line WI-38
PC-3 = experiment: as above; assay type: cell-based; conditions: cytotoxic activity, human prostate adenocarcinoma, read-out: IC50 Cancer Cell Lines PC-3
HuTu-80 = experiment: as above; assay type: cell-based; conditions: Homo sapiens, HuTu80; cytotoxic activity, duodenal adenocarcinoma; read-out: IC50 Cancer Cell Lines HuTu-80
M-HeLa = experiment: as above; assay type: cell-based; conditions: cytotoxic activity, human cervix epitheloid carcinoma, read-out: IC50 Cancer Cell Lines M-HeLa
in vitro [1] = conditions: African green monkey, CC50, Vero cells, MTT; concentration causing 50% cell death
Vero cells = conditions: for CC50: Vero cells, MTT, concentration causing 50% cell death
in vitro [2] = conditions: dog
Coxsackie B3 virus = experiment: Antiviral (cytoprotection, MTT) assay against Coxsackie B3 virus in Vero cells; assay type: cell-based, coxsackievirus B3; conditions: for IC50: 50% inhibition of virus replication, Vero cells, 48 h; for SI: CC50/IC50 ratio, Coxsackie B3 / Vero
[3] = system: A/Puerto Rico/8/34 (H1N1) influenza virus; experiment: Antiviral (cytoprotection, MTT) assay against influenza virus in MDCK cells; assay type: cell-based; conditions: for SI: CC50/IC50 ratio, influenza H1N1 / MDCK; for IC50: Influenza A virus, H1N1, MDCK, 48 h
[4] = 50% inhibition of virus replication, MDCK cells, read-out: IC50

SMILES	IC50 (WI-38)	IC50 (PC-3)	IC50 (HuTu-80)	IC50 (M-HeLa)	CC50 (in vitro [1])	CC50 (Vero cells)	CC50 (in vitro [2])	IC50 (Coxsackie B3 virus)	SI (Coxsackie B3 virus)	IC50 (Coxsackie B3 virus; Enterovirus B, B3, Vero)	SI [3]	IC50 [3]	antiviral activity against influenza virus A H1N1 (in words) ([3]; MDCK cells)	cytotoxicity against the Vero cell line (in words) (Vero cells)	IC50 [3, 4]
O=c1[nH]cc(F)c(=O)[nH]1 [5-Fluorouracil, reference compound]	82.5 ± 6.6 µM	10.3 ± 0.8 µM	65.2 ± 5.5 µM	62 ± 4.9 µM											
CC(=O)OCC1OC(n2cc(CCCCn3c(C)cc(=O)n(CCCCc4cn(C5OC(COC(C)=O)C(OC(C)=O)C5OC(C)=O)nn4)c3=O)nn2)C(OC(C)=O)C1OC(C)=O (stereo not shown) [Compound 2f]	> 100 µM	> 100 µM	> 100 µM	88.1 ± 7.4 µM	18 µM	17.7 ± 0.6 µM	> 338 µM	> 12.4 µM	1	12.4 µM	4	96.3 ± 12.4 µM	inactive		
Cc1cc(=O)n(CCCCc2cn(C3OC(CO)C(O)C3O)nn2)c(=O)n1CCCCc1cn(C2OC(CO)C(O)C2O)nn1 (stereo not shown) [Compound 2i]	> 100 µM	> 100 µM	> 100 µM	100 ± 8.5 µM	> 471 µM		> 471 µM		1	> 471 µM	8			not cytotoxic	57.5 ± 7.1 µM
CC(=O)OCC1OC(n2cc(CCCCn3c(=O)c4nc5ccccc5nc4n(CCCCc4cn(C5OC(COC(C)=O)C(OC(C)=O)C5OC(C)=O)nn4)c3=O)nn2)C(OC(C)=O)C1OC(C)=O (stereo not shown) [Compound 5f]	> 100 µM	66.8 ± 5.3 µM	> 100 µM	71.4 ± 6.3 µM	18 µM	17.8 ± 1.1 µM	> 308 µM	> 11.3 µM	2	11.3 µM	3		inactive		91.6 ± 10.8 µM
O=c1c2nc3ccccc3nc2n(CCCCc2cn(C3OC(CO)C(O)C3O)nn2)c(=O)n1CCCCc1cn(C2OC(CO)C(O)C2O)nn1 (stereo not shown) [Compound 5i]	> 100 µM	> 100 µM	> 100 µM	71 ± 6.1 µM	> 414 µM		> 414 µM		1	> 414 µM	17			not cytotoxic	24.3 ± 3.2 µM
